The source of these data is EP4574152A1, “POTASSIUM CHANNEL ACTIVATORS FOR USE IN THE TREATMENT OF EPILEPTIC DISORDERS” (Fraunhofer-Gesellschaft zur Förderung der angewandten …, priority 2023, dated 2025).

Read-outs that look alike come from different tables or passages of the source.

Assay [1] has as its target T1, Kv7.3 A315T (Homo sapiens, UniProt O43525, A315T).
T1 construct: expressed in transfected cells; host or cells: CHO, transient
Description: whole-cell patch-clamp in CHO cells transiently transfected with Kv7.3 A315T cDNA. The assay is classed as cell-based. As to the method: (§1) JNJ-37822681 efficacy in opening Kv7 channels was further investigated through the whole-cell patch-clamp electrophysiological technique, the gold standard technique for investigating ion channels activity and pharmacological modulation.
In order to better evaluate the quantitative differences occurring in Kv7-opening ability between retigabine, and JNJ-37822681, dose-response experiments (0.01-30 µM) were performed to calculate EC50s using the functional parameters of ΔV1/2 (Figure 1C).

In assay [2] the test system is PTZ-induced seizures. Description: PTZ-induced seizures in mice. The assay is classed as in vivo, C57BL/6J mice. To be noted: for ED50: Mus musculus, ip; for ED50 Values (mg/Kg) Clonus / ED50 Values (mg/Kg) Tonus: i.p. As to the method:
(§2) JNJ-37822681 was tested in two animal models of acute seizures widely used for the evaluation of new ASMs: 1. a mouse model of generalized myoclonic seizures such as acute exposure to the GABAA receptor antagonist pentylenetetrazol (PTZ); 2. audiogenic seizures induced in genetically epilepsy-prone DBA/2 mice.
(§3) In both animal models, retigabine or JNJ-37822681 were administered i.p, 30 minutes before seizures induction with PTZ or sounds.

In assay [3] the test system is audiogenic seizures. Description: audiogenic seizures in DBA/2 mice. The assay is classed as in vivo. To be noted: limits in brackets; for ED50: Mus musculus, ip; for ED50 Values (mg/Kg) Clonus / ED50 Values (mg/Kg) Tonus / ED50 Values (mg/Kg) Wild Running: i.p. The procedure:
as §2, §3

Assay [4] concerns the target T2, Kv7.2 channels carrying the W236L mutation (Homo sapiens, UniProt O43526, W236L).
T2 construct: expressed in transfected cells
Description: patch-clamp on homomeric Kv7.2 channels carrying the W236L mutation. The class given is cell-based. To be noted: 10 µM.

For assay [5], the target named is T3, Kv7.2+Kv7.3 channels (Homo sapiens, UniProt O43525+O43526).
T3 construct: expressed in transfected cells; host or cells: CHO
Kind of assay: whole-cell patch-clamp in CHO cells expressing Kv7.2+Kv7.3 channels. The assay is classed as cell-based. To be noted: calculated from dose-response curves, Kv7.2/7.3 currents.
Excerpt: as §1

Assay [6] deals with T1, Kv7.3 A315T. Kind of assay: fluorescence-based thallium flux assay (FluxOR) in CHO cells stably transfected with Kv7.3 A315T. The assay is classed as cell-based. To be noted: for maximum activities: relative to retigabine. An excerpt: The Fraunhofer repurposing library was initially screened in a cellular model represented by Chinese hamster ovary cells (CHO) stably transfected with a variant of the Kv7.3 channel (carrying the mutation A315T to enhance current size and increase the signal-to-noise ratio). The Kv7.3 A315T cell line was used in a fluorescence-based thallium flux assay (FluxOR, Thermofisher) optimized as a read-out for Kv7 channel function, using retigabine as a positive control.
Compounds in the Fraunhofer repurposing library were tested in Kv7.3 A315T-expressing cells at 10 µM and their Kv7 opening effect was compared to that observed with 10 µM retigabine.

The mark [7] stands for this setting: 30 minutes before seizures induction with PTZ, limits in brackets.
[8] abbreviates: 30 minutes before seizures induction with sounds.

Turning to `Fc1ccc(CN2CCC(Nc3ccc(C(F)(F)F)nn3)CC2)cc1F` [JNJ-37822681, N-[1-[(3,4-difluorophenyl)methyl]-4-piperidinyl]-6-(trifluoromethyl)-3-pyridazinamine], the EC50 in assay [1] (calculated from ΔV1/2, dose-response 0.01-30 µM, read-out: EC50) was 2000 ± 30 nM; in assay [5], 1200 ± 300 nM; in assay [6] (FluxOR assay, ten-point dose-response curve from 0.5 nM to 10 µM, read-out: EC50) it was 140 nM. Further, in assay [1] (dose-response 0.01-30 µM), the “maximal ΔV1/2” value turned out to be 37.0±5.4 mV. The “leftward shift of the channel voltage-dependence of activation (ΔV1/2)” value in assay [1] (perfusion with 1 µM) is on record as “qualitatively similar effects”. Moreover, the ED50 in assay [2] (30 minutes before seizures induction with PTZ, limits in brackets, read-out: ED50 Values (mg/Kg) Clonus) turned out to be 15 mg/kg; in assay [2] (30 minutes before seizures induction with PTZ, limits in brackets, read-out: ED50 Values (mg/Kg) Tonus) it was 9 mg/kg; in assay [3] (30 minutes before seizures induction with sounds, read-out: ED50 Values (mg/Kg) Clonus) it was 6 mg/kg; in assay [3] (30 minutes before seizures induction with sounds, read-out: ED50 Values (mg/Kg) Tonus), 3 mg/kg; in assay [3] (30 minutes before seizures induction with sounds, read-out: ED50 Values (mg/Kg) Wild Running), 11 mg/kg. The “ED50 Values (mg/Kg) Clonus” value was 15 (12-18) mg/Kg in assay [2] (setting [7]) and 6 (5-9) mg/Kg in assay [3] (setting [8]). Moreover, the “ED50 Values (mg/Kg) Tonus” value is 9 (6-13) mg/Kg in assay [2] (setting [7]) and 3 (2-5) mg/Kg in assay [3] (setting [8]). For the same compound, the “ED50 Values (mg/Kg) Wild Running” value in assay [3] (setting [8]) is recorded as 11 (8-13) mg/Kg. Besides, in assay [4], the “activation of Kv7.2 channels carrying the W236L mutation” value is given as “failed to activate”. The same compound registered a maximum activities in assay [6] (FluxOR assay) of 83.8%.

As to `CCOC(=O)Nc1ccc(NCc2ccc(F)cc2)cc1N` [retigabine, reference compound], the EC50 in assay [1] worked out at 600 ± 100 nM; in assay [6] it was 300 nM. For the same compound, the ED50 in assay [2] (read-out: ED50 Values (mg/Kg) Clonus) was determined as 13 mg/kg; in assay [2] (read-out: ED50 Values (mg/Kg) Tonus), 9 mg/kg; in assay [3] (read-out: ED50 Values (mg/Kg) Clonus, i.p., 30 minutes before seizures induction with sounds), 7 mg/kg; in assay [3] (read-out: ED50 Values (mg/Kg) Tonus, i.p., 30 minutes before seizures induction with sounds) it was 4.6 mg/kg; in assay [3] (read-out: ED50 Values (mg/Kg) Wild Running, i.p., 30 minutes before seizures induction with sounds) it was 12 mg/kg. Moreover, the “ED50 Values (mg/Kg) Clonus” value in assay [2] (setting [7]) was 13 (9.2-18.5) mg/Kg; in assay [3] (setting [8]) it was 6.9 (4.3-11) mg/Kg. The “ED50 Values (mg/Kg) Tonus” value was 9 (7-12) mg/Kg in assay [2] (setting [7]) and 4.6 (3.6-6) mg/Kg in assay [3] (setting [8]). The “ED50 Values (mg/Kg) Wild Running” value in assay [3] (setting [8]) is on record as 12.4 (9-17.3) mg/Kg. This compound yielded a maximum activities in assay [6] (FluxOR assay) of 100%.
